Data on one compound can be found in PMC9818021, “Targets, Mechanisms and Cytotoxicity of Half-Sandwich Ir(III) Complexes Are Modulated by Structural Modifications on the Benzazole Ancillary Ligand” (Cancers, 2022).

The structures appear in SMILES notation.

The subject of series [1] is gene expression (stress response, apoptosis, cell cycle genes). Kind of series: RT-qPCR differential gene expression. The note with it: vs. Control, 6 h after treatment. Format: cell-based, human. Here is the method: Specific assays with 1[C,NH] complex were performed according to manufacturer’s instructions using the following reagents from Molecular Probes (Thermo Fisher Scientific): Measurements of ROS: Dihydroethidium (DHE, D11347) and 2′, 7′-dichlorodihydrofluorescein diacetate (H2DCFDA, D399); detection of caspases 3/7: CellEvent Caspase-3/7 Green Detection Reagent (C10423); Cell viability: Live/Dead Cell Imaging Kit (R37601); Analysis of cytosolic calcium concentration: Fluo3/AM (F23915); Analysis of MMP: Tetramethylrhodamine methyl ester perchlorate (TMRM, T668). RT-qPCR’s assays were performed with the following primers/probes from Thermo Fisher Scientific: DCP1A (Hs00218198-m1), FOSB (Hs00171851-m1), EGR1(Hs0015928-m1), ATF3 (Hs00231069-m1), DDIT3 (Hs00358796-g1), PP1R15A (Hs00169585-m1), CHAC1(Hs00225520-m1), MIR9-1 (Hs04231512-s1), ATP1B2 (Hs00155922-m1), BBC3 (Hs00248075-m1), BCL2L11 (Hs00798019-s1), PMAIP1 (Hs00560402-m1), SKP2 (Hs01021864-m1) and HIST1H1B (Hs00271207-s1). RT-qPCR experiments were performed as described.

A short description of series [2]: Drug uptake by cells (ICP-MS). Format: cell-based. The following applies: 16 μM, 400,000 cells, 4 h. Here is the method:
1[C,NH] reduced the lung tumor burden. Prior the performance of in vivo studies, the drug uptake was determined. The amount of 1[C,NH] entering the cell was estimated after administration of 16 μM of 1[C,NH] to 400,000 cells. The intracellular iridium content was assessed after 4 h by ICP-MS, and the percentage of drug taken up by cells was 1.7%. Then, acute toxicity and bio distribution of 1[C,NH] was studied in healthy mice (BALB/c). […] Antitumor efficacy was studied using an orthotopic model of lung cancer in nude mice (Figure 8B). A549-luc cells (A549 cells marked with luciferase) were used to induce the tumor and 20 days after the injection of cells, we proceeded to the administration of 4 doses (0.9 mg/kg) of 1[C,NH] on alternate days. […] However, we cannot exclude the appearance of toxic effects after repeated administrations over longer periods of time. […] To differentiate the effect of 1[C,NH] on the primary tumor and on the affected nodes, at day 37, the animals were sacrificed, and luciferase activity, as a marker on the presence of tumor cells, was measured. […] Moreover, lung mice were stained with a monoclonal antibody against a human cytokeratin (only A549 tumor cells of human origin were stained) (Figure 8D). […] In addition, other factors influence the efficacy of a drug on the primary tumor and not on the metastasis, cell-cell interactions, matrix in the nodes, etc. […]

The test system of a further series is A549 cells. As to the kind of experiment: ATP levels (Cell Titer-Glo). The format is cell-based, human. The following applies: 16 µM, 8 h incubation. The method, then: DNA damage was measured using EpiQuik 8-OHdG DNA Damage Quantification Direct Kit (colorimetric) (Fischer, Waltham, MA, USA, P600396); The mitochondrial cytochrome C release was evaluated using the “Millipore’s FlowCellect Cytochrome C Kit (Millipore, FCCH100110)”. Lactate dehydrogenase activity release was measured in the culture medium using Cytotoxicity Detection Kit (Roche Diagnostic, Barcelona, Spain, 11 644 793 001). Protein synthesis was determined using Click-iT Plus O-propargyl-puromycin (OPP) Protein Synthesis Assay Kit (Invitrogen™, Waltham, MA, USA). Measurement of GSH/GSSG was determined with GSH/GSSG-Glo Assay (Promega, V6611). Measurements of OCR and ECAR with Seahorse XFp (Agilent Technologies) were determined using the XFp Cell Mito Stress Test Kit (103010-100) and XFp Glycolysis Stress Test Kit (103017-100). ATP measurement was determined with Cell Titer-Glo Luminescent Cell Viability Assay (Promega, Madison, WI, USA, G7570). Determination of DNA damage using phosphorylated H2AX measurement were performed as previously described. Cardiolipin oxidation using the fluorophore Nonyl Acridine Orange (NAO, Thermo Scientific, A1372) was performed as described. Cell viability was determined by Hoechst inclusion and Propidium iodide (PI) exclusion by standard protocols. TEM analysis were performed as described. […]
On the technique in general: Cellular ATP, detected with luciferase, serves as a proxy for viable cell number.

Series [3] has as its system A549-luc orthotopic lung tumor in athymic nude mice. Kind of series: Orthotopic lung cancer model (A549-luc). Format: in vivo, mouse. Here is the method: Orthotopic lung cancer model. Athymic nude mice were used. The model was developed following the protocol previously described. On day 20, treatment with the metal complex was started, and 4 doses were given every other day. Tumor growth was measured in vivo by luminescence (IVIS® Spectrum) on the days that the complexes were not administered, ending the experiment on day 37 with the sacrifice of the animal and the removal of organs. Organ indicators of metastases, lungs, and mediastinal lymph nodes were processed as previously described. Histological analyzes were performed as described.

[4] abbreviates: 4 doses (0.9 mg/kg) on alternate days.

As to `Cc1c(C)c(C)[c-](C)c1C.[Cl][Ir]1[c]2ccccc2-c2[nH]c3ccccc3[n+]21` [1[C,NH], [(η^5-Cp*)IrCl(κ^2-N,C-pbim)]], in series [1], the “ATF3 RT-qPCR (2-ΔΔCt)” value is given as greater than 100, the “ATP1B2 RT-qPCR (2-ΔΔCt)” value stood at 19.5, the “BBC3 RT-qPCR (2-ΔΔCt)” value was 3.7 and the “BCL2L11 RT-qPCR (2-ΔΔCt)” value is 3.6. Further, in series [1], the “CHAC1 RT-qPCR (2-ΔΔCt)” value is 3.5, the “DDIT3 RT-qPCR (2-ΔΔCt)” value was found to be 7.8, the “EGR1 RT-qPCR (2-ΔΔCt)” value is on record as greater than 100 and the “FOSB RT-qPCR (2-ΔΔCt)” value is greater than 100. In series [1], the “HIST1H1B RT-qPCR (2-ΔΔCt)” value is 0.1, the “MIR9-1 RT-qPCR (2-ΔΔCt)” value is greater than 100, the “PMAIP1 RT-qPCR (2-ΔΔCt)” value is 3.4 and the “PPP1R15A RT-qPCR (2-ΔΔCt)” value turned out to be 14.8. In series [1], the “SKP2 RT-qPCR (2-ΔΔCt)” value was found to be 0.3. Also, the “Percentage of drug taken up by cells” value in series [2] amounted to 1.7%. Moreover, in the series with A549 cells, the “Decrease on ATP levels” value is reported as “around 35%”. In addition, in series [3] (setting [4]), the “Body weight of treated mice” value is on record as “did not lose weight” and the “Necropsy findings in non-tumor tissues” value is “no pathological evidence of relevance was detected in non-tumor tissues”. In series [3] (4 doses (0.9 mg/kg), day 37), the “Luciferase activity in mediastinal nodes” value is on record as “lack of effect”, the “Luciferase activity in the primary tumor (lung extracts)” value is on record as “significantly reduced luciferase activity in the primary tumor” and the “Size of tumor foci (anti-CK7 immunohistochemistry)” value was “strong effect on reducing the size of tumor foci”.
